From ChEMBL document CHEMBL3882724 (2013)

How the values were obtained:
[1] = target: T1, Steroid 17-alpha-hydroxylase/17,20 lyase (Homo sapiens, UniProt P05093); test: Inhibition of CYP17 in human testicular microsomes using 17alpha-hydroxypregnenolone as substrate assessed as decrease in DHEA levels at 10 nM after 90 mins by ELISA relative to control; set-up: species or system Testis; settings: 1.5 h
T1 sequence (P05093 whole entry): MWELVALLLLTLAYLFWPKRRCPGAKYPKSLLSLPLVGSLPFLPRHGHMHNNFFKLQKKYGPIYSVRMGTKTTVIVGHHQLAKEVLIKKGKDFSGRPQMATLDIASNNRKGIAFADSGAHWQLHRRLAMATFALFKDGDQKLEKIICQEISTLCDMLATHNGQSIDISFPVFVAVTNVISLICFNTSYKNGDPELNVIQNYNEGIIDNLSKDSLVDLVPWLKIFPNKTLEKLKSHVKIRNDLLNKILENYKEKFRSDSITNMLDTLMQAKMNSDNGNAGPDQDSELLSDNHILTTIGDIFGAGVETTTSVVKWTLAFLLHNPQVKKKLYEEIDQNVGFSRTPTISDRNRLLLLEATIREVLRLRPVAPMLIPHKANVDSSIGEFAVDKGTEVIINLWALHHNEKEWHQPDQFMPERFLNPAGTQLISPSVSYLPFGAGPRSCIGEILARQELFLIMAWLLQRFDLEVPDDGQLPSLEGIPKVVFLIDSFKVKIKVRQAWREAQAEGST

[2] = Half life in human liver microsomes at 1 uM by LC-MS/MS analysis
[3] = Half life in rat liver microsomes at 1 uM by LC-MS/MS analysis
[4] = target: T1, Steroid 17-alpha-hydroxylase/17,20 lyase; test: Inhibition of CYP17 in human testicular microsomes using 17alpha-hydroxypregnenolone as substrate assessed as decrease in DHEA levels after 90 mins by ELISA; set-up: species or system Testis
[5] = target: T2, CYP21 (steroid 21-hydroxylase) (Homo sapiens, UniProt P08686); test: Inhibition of human CYP21 transfected in HEK293 cells assessed as decrease in conversion of progesterone to 11-deoxycorticosterone preincubated for 5 hrs followed by progesterone addition measured after 20 hrs by ELISA; assay type: cell-based; set-up: concentration or dose not given beside the values; settings: HEK293 cells transfected with human CYP21, probe progesterone
T2 sequence (P08686 whole entry): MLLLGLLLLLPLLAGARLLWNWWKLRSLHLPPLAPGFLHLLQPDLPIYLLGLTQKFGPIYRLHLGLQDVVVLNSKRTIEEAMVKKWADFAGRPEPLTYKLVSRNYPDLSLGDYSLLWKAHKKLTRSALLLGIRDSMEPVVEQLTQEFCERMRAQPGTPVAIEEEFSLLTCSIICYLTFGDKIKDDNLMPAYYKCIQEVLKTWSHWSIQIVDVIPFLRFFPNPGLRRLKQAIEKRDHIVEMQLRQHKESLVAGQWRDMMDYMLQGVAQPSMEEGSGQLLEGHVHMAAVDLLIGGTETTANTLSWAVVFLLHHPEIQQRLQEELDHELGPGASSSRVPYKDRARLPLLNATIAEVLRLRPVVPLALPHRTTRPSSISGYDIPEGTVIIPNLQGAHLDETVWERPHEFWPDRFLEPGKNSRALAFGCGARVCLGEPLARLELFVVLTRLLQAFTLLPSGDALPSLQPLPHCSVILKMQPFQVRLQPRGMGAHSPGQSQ

[6] = target: T1, Steroid 17-alpha-hydroxylase/17,20 lyase; test: Inhibition of CYP17 in human H295R cells assessed as decrease in testosterone levels after 24 hrs by ELISA; assay type: cell-based

Row | SMILES | inhibition at 0.01 µM [1] [%] | half-life at 1 µM [2] [min] | half-life at 1 µM [3] [min] | IC50 [4] [nM] | inhibition at 20 h [5] [%] | IC50 [6] [nM]
1 | CCCOc1cncc(C2=CC[C@H]3[C@@H]4CCN5CCCCC[C@]5(C)[C@H]4CC[C@]23C)c1 | 50 to 80 | 10 to 60 | 10 to 60 | – | – | –
2 | C[C@]12CCNC(=O)C[C@@H]1CC[C@@H]1[C@@H]2CC[C@]2(C)C(n3ccnc3)=CC[C@@H]12 | ≥ 80 | ≥ 50 | 10 to 60 | ≤ 11 | – | –
3 | Cc1cncc(C2=CC[C@H]3[C@@H]4CCN5C(=O)CCCC[C@]5(C)[C@H]4CC[C@]23C)c1 | 50 to 80 | 1 to 10 | 1 to 10 | ≤ 11 | – | –
4 | Cc1ccncc1C1=CC=C2[C@@H]3CC=C4C[C@@H](O)CC[C@]4(C)[C@H]3CC[C@]12C | – | 1 to 50 | – | – | ≥ 50 | 15 to 100
5 | Cc1cncc(C2=CC[C@H]3[C@@H]4CC[C@H]5COC(=O)CC[C@]5(C)[C@H]4CC[C@]23C)c1 | 1 to 50 | 1 to 10 | 1 to 10 | – | – | –
6 | CN1C(=O)COC[C@@]2(C)C1CC[C@@H]1[C@@H]2CC[C@]2(C)C(c3cccnc3)=CC[C@@H]12 (stereo partly specified) | 50 to 80 | 1 to 10 | 1 to 10 | ≤ 11 | – | –
7 | CN(C)CC(=O)O[C@H]1CC[C@@]2(C)C(=CC[C@H]3C4=CC=C(c5cccnc5)[C@@]4(C)CC[C@@H]32)C1 | – | – | – | – | ≥ 50 | 15 to 100
8 | C[C@]12CCNC(=O)C=C1CC[C@@H]1[C@@H]2CC[C@]2(C)C(n3ccnc3)CC[C@@H]12 (stereo partly specified) | ≥ 80 | ≥ 50 | 10 to 60 | ≤ 11 | – | –
9 | C[C@]12CCCCC[C@@H]1CC[C@@H]1[C@@H]2CC[C@]2(C)C(n3ccnc3)=CC[C@@H]12 | 50 to 80 | 10 to 60 | 10 to 60 | ≤ 11 | – | –
10 | C[C@]12CC[C@H]3[C@@H](CCC45CC4C(O)CC[C@]35C)[C@@H]1CC=C2c1cccnc1 (stereo partly specified) | – | – | – | ≤ 11 | ≥ 50 | ≤ 15
11 | Cc1cn(C2=CC[C@H]3[C@@H]4CCC5=CC(=O)NCC[C@]5(C)[C@H]4CC[C@]23C)cn1 | 50 to 80 | 10 to 60 | 10 to 60 | ≤ 11 | – | –
12 | C[C@]12CCOCC[C@@H]1CC[C@@H]1[C@@H]2CC[C@]2(C)C(c3cccnc3)=CC[C@@H]12 | ≥ 80 | 1 to 10 | 1 to 10 | ≤ 11 | – | –
13 | C[C@]12CCNC(=O)C=C1CC[C@@H]1[C@@H]2CC[C@]2(C)C(n3ncnn3)=CC[C@@H]12 | ≥ 80 | 1 to 10 | 1 to 10 | – | – | –
14 | Cc1cncc(C2=CC[C@H]3[C@@H]4CC(=O)C5CCCC[C@]5(C)[C@H]4CC[C@]23C)c1 (stereo partly specified) | – | 1 to 10 | 1 to 10 | ≤ 11 | – | –
15 | CC1C(O)CC[C@@]2(C)C1CC[C@@H]1[C@@H]2CC[C@]2(C)C(c3cccnc3)=CC[C@@H]12 (stereo partly specified) | – | – | – | ≤ 11 | 10 to 50 | ≤ 15
16 | C[C@]12CC[C@H]3[C@@H](CC=C4C[C@@H](O)CC[C@@]43C)C1=CC=C2c1cncc(C(F)F)c1 | – | – | – | – | < 10 | 15 to 100

Row | SMILES | inhibition at 0.01 µM [1] [%] | half-life at 1 µM [2] [min] | half-life at 1 µM [3] [min] | IC50 [4] [nM] | inhibition at 20 h [5] [%] | IC50 [6] [nM]
17 | Cc1cncc(C2=CC[C@H]3[C@@H]4CC[C@H]5COCCC[C@]5(C)[C@H]4CC[C@]23C)c1 | 50 to 80 | 1 to 10 | 1 to 10 | ≤ 11 | – | –
18 | CCc1cncc(C2=CC[C@H]3[C@@H]4CCN5CCCCC[C@]5(C)[C@H]4CC[C@]23C)c1 | 1 to 50 | 1 to 10 | 1 to 10 | – | – | –
19 | C[C@@]1(O)CC[C@@]2(C)C(CC[C@@H]3[C@@H]2CC[C@]2(C)C(c4cncc(F)c4)=CC[C@@H]32)C1 (stereo partly specified) | – | 1 to 50 | – | ≤ 11 | – | ≤ 15
20 | COc1cncc(C2=CC[C@H]3[C@@H]4CCN5C(=O)CCCC[C@]5(C)[C@H]4CC[C@]23C)c1 | ≥ 80 | 1 to 10 | 1 to 10 | ≤ 11 | – | –
21 | C[C@]12CCC(F)CC1=CC[C@@H]1[C@@H]2CC[C@]2(C)C(c3cncc(F)c3)=CC[C@@H]12 (stereo partly specified) | – | ≥ 50 | – | ≤ 11 | – | ≤ 15
22 | C[C@]12CC(=O)C[C@@H]1CC[C@@H]1[C@@H]2CC[C@]2(C)C(n3ccnc3)=CC[C@@H]12 | ≥ 80 | ≥ 50 | 1 to 10 | ≤ 11 | – | –
23 | CC(=O)N[C@@H]1CC[C@@]2(C)C(=CC[C@H]3C4=CC=C(c5cccnc5)[C@@]4(C)CC[C@@H]32)C1 | – | 1 to 50 | – | – | ≥ 50 | ≤ 15
24 | C[C@]12CCCCC1=CC[C@@H]1[C@@H]2CC[C@]2(C)C(c3cccnc3)=CC[C@@H]12 | 50 to 80 | 1 to 10 | 1 to 10 | – | – | –
25 | CCc1cncc(C2=CC[C@H]3[C@@H]4CCN5C(=O)CCCC[C@]5(C)[C@H]4CC[C@]23C)c1 | ≥ 80 | 1 to 10 | 1 to 10 | ≤ 11 | – | –
26 | COc1cncc(C2=CC[C@H]3[C@@H]4CC[C@H]5CCOCC[C@]5(C)[C@H]4CC[C@]23C)c1 | 50 to 80 | 1 to 10 | 1 to 10 | ≤ 11 | – | –
27 | CCOc1cncc(C2=CC[C@H]3[C@@H]4CC[C@H]5COCCC[C@]5(C)[C@H]4CC[C@]23C)c1 | 50 to 80 | 1 to 10 | 1 to 10 | ≤ 11 | – | –
28 | CC(C)C(=O)N[C@H]1CC[C@@]2(C)C(CC[C@@H]3[C@@H]2CC[C@]2(C)C(c4cccnc4)=CC[C@@H]32)C1 (stereo partly specified) | – | 1 to 50 | – | – | ≥ 50 | ≤ 15
29 | COc1cncc(C2=CC[C@H]3[C@@H]4CC[C@H]5COCCC[C@]5(C)[C@H]4CC[C@]23C)c1 | 50 to 80 | 1 to 10 | 1 to 10 | ≤ 11 | – | –
30 | CC1=C2CC[C@@H]3[C@H](CC[C@]4(C)C(c5cccnc5)=CC[C@@H]34)[C@@]2(C)CCC1=O | – | – | – | ≤ 11 | ≥ 50 | ≤ 15
31 | C[C@]12CCCOCC1CCC1C2CC[C@]2(C)C(c3cccnc3)=CC[C@@H]12 (single isomer, unassigned) | ≥ 80 | 1 to 10 | 1 to 10 | ≤ 11 | – | –
